Experimental findings from PMC10004088, “Myrtinols A–F: New Anti-Inflammatory Peltogynoid Flavonoid Derivatives from the Leaves of Australian Indigenous Plant Backhousia myrtifolia” (Molecules, 2023) are described below.

One may read the IC50 as the concentration needed to halve the response being measured. For orientation: CC50 means the concentration giving 50% cytotoxicity.

Where only a bound is given, the exact number is not on record here.

What all share (assay type): cell-based
The subject of test [1] is nitric oxide (NO) production in LPS + IFN-γ activated RAW 264.7 macrophages. The test can be described thus: Inhibition of NO production (Griess assay) in LPS + IFN-γ activated RAW 264.7 macrophages. The note with it: for IC50: Mus musculus, RAW264.7, 24 hrs, N = 6, mean ± SD; for Anti-inflammatory activity (in words): verbal judgement of Table 3 data. As to the method: (§1) All compounds were assessed for their anti-inflammatory activity by evaluating the inhibition of NO production and TNF-α in LPS plus interferon (IFN)-γ activated RAW 264.7 macrophages. All compounds were also evaluated for their cytotoxicity using the Alamar blue assay (Table 3).
(§2) Cells were grown in 75 cm^2 flasks on Dulbecco’s Modified Eagle Medium (DMEM) containing 10% fetal bovine serum (FBS) that was supplemented with penicillin (100 U/mL), streptomycin (100 μg/mL) and L-glutamine (2 mM). The cell line was maintained in 5% CO2 at 37 °C, with media being replaced every 3–4 days. Once cells had grown to confluence in the culture flask, they were harvested using a rubber policeman, as opposed to using trypsin, which can remove membrane-bound receptors.
(§3) RAW 264.7 cells (1 × 10^6 cells/mL) were seeded in 96 well plates (Corning® Costar®, Sigma, Sydney, Australia) overnight until confluency. When the cells were confluent, each compound was serially diluted from a starting concentration of 100 μg mL^−1 to construct a dose response curve (i.e., 100, 50, 25, 12.5, 6.25, and 3.13 μg mL^−1) and co-incubated with cells for 1 hr prior to the addition of 1 μg mL^−1 LPS and 10 U mL^−1 (1 unit = 0.1 ng/mL) IFN-γ. After activation, the cells were incubated for another 24 hrs at 37 °C. The supernatant was then collected for NO, and TNF-α assays. The cells were subjected to cell viability measurement using the Alamar Blue assay. Non-activated cells (exposed to media only) were used as negative control and activated cells were positive control.
Nitric oxide was determined by the Griess reagent as described in previous studies. Griess reagent was freshly made up of equal volumes of 1% sulfanilamide in 5% phosphoric acid and 0.1% N-1-naphthylethylenediamine dihydrochloride in Milli-Q water. From each well, 50 µL of supernatant was transferred to a fresh 96-well plate and mixed with 50 µL of Griess reagent. The production of nitrite as an indicator of NO was measured at 540 nm in a POLARstar Omega microplate reader (BMG Labtech, Mornington, Australia).
(§4) Data analysis was carried using GraphPad Prism 9.3.1. Calculations were performed using MS-Excel version 16.61.1. IC50 values were obtained by using the sigmoidal dose–response function in GraphPad Prism. The results were expressed as mean ± standard deviation (SD).
In general terms: Nitrite, measured by Griess reagent, commonly stands in for NO production.

The test system of test [2] is TNF-α production in LPS + IFN-γ activated RAW 264.7 macrophages. The test can be described thus: Inhibition of TNF-α production (ELISA) in LPS + IFN-γ activated RAW 264.7 macrophages. The note with it: Mus musculus, RAW264.7, 24 hrs, N = 6, mean ± SD. On the procedure: as §1, §2, §3
The stored supernatants were analyzed for TNF-α synthesis using a commercial ELISA kit (Peprotech, Brisbane, Australia) according to the manufacturer’s instructions. The absorbance was measured at 410 nm. The concentrations of TNF-α in the experimental samples were extrapolated from a standard curve.
as §4
(ELISA stands for enzyme-linked immunosorbent assay.)

The next test deals with RAW 264.7 macrophages. Put plainly: Cell viability / cytotoxicity by the Alamar Blue assay. The note with it: Mus musculus, RAW264.7, 24 h, LPS + IFN-γ activated RAW 264.7 macrophages, N = 6, mean ± SD. On the procedure: as §1, §2, §3
After various treatments and the stimulation by LPS and IFN-γ overnight, 100 µL of Alamar Blue solution [10% Alamar Blue (resazurin) in DMEM media] was added to cells and incubated at 37 °C for 2 hrs. The fluorescence intensity was measured with excitation at 530 nm and emission at 590 nm using a microplate reader. The results were expressed as a percentage of the intensity to that of control cells (non-activated cells).
as §4
On the technique in general: The colour change of resazurin is a common sign of viable cells or microbes.

Consider `COc1ccc([C@@H]2Oc3c(O)cc(CCCO)cc3[C@H]2CO)cc1OC` [Compound 7, 4-O-methylcedrusin], for which, in test [1], the IC50 is 44.1 ± 13.4 µg/mL and the “Anti-inflammatory activity (in words)” value is on record as “did not show good anti-inflammatory activity”. Moreover, the IC50 in test [2] is above 100 µg/mL. Further, in the test with RAW 264.7 macrophages, the 50% cytotoxic concentration (CC50) is above 100 µg/mL.
With `COc1cc2c(c(O)c1C)C[C@@H]1OCc3c(cc(OC)c(OC)c3O)[C@H]1O2` [Compound 4, Myrtinol D], the concentration for half-maximal inhibition (IC50) in test [1] was determined as 29.3 ± 10.9 µg/mL; in test [2] it was 91.3 ± 7.14 µg/mL. Moreover, in the test on RAW 264.7 macrophages, the cytotoxic concentration (CC50) was found to be 71.5 ± 14.7 µg/mL.
On to `COc1cc([C@@H]2Oc3c(OC)cc(CCCO)cc3[C@H]2CO)ccc1O` [Compound 8, 7-O-methylcedrusin], for which the IC50 in test [1] and in test [2] was above 100 µg/mL in each case. Further, the “Anti-inflammatory activity (in words)” value in test [1] is “did not show good anti-inflammatory activity”. For the same compound, the 50% cytotoxic concentration (CC50) in the test with RAW 264.7 macrophages was above 100 µg/mL.
`COc1cc2oc(-c3ccc(O)cc3)cc(=O)c2c(O)c1C` [Compound 9, 8-demethylsideroxylin]: the IC50 stood at 8.3 ± 0.96 µg/mL in test [1] and 46.8 ± 5.87 µg/mL in test [2]. For the same compound, the CC50 in the test with RAW 264.7 macrophages came out at 20.4 µg/mL.
`COc1cc2c(c(O)c1C)[C@@H](O)[C@@H]1OCc3c(cc(OC)c(OC)c3O)[C@H]1O2` [Compound 3, Myrtinol C]: the IC50 in test [1] and in test [2] was above 100 µg/mL in each case. The “Anti-inflammatory activity (in words)” value in test [1] was “inactive”. Moreover, in the test with RAW 264.7 macrophages, the CC50 was above 100 µg/mL.
As to `COc1c(C)c(O)cc2c1C[C@@H]1OCc3c(cc4c(c3O)OCO4)[C@H]1O2` [Compound 1, Myrtinol A], the results for the IC50 in test [1] and in test [2] were 11.5 ± 0.14 µg/mL and 24.5 ± 0.28 µg/mL, respectively. Further, the CC50 with RAW 264.7 macrophages worked out at 18.8 ± 0.39 µg/mL.
Consider `COc1cc(/C=C/C(=O)CC(=O)/C=C/c2ccc(O)c(OC)c2)ccc1O` [curcumin, reference compound], for which the half-maximal inhibitory concentration (IC50) was 4.64 ± 1.5 µg/mL in test [1] and 4.19 ± 2.6 µg/mL in test [2]. In addition, the 50% cytotoxic concentration (CC50) in the test with RAW 264.7 macrophages is 10.9 ± 1.3 µg/mL.
For `COc1cc2c(c(O)c1OC)CO[C@H]1Cc3c(cc(O)c(C)c3OC)O[C@H]21` [Compound 2, Myrtinol B], the IC50 came out at 16.2 ± 0.77 µg/mL in test [1] and 52.4 ± 7.47 µg/mL in test [2]. The half-maximal cytotoxic concentration (CC50) with RAW 264.7 macrophages amounted to 37.2 ± 2.09 µg/mL.
In the case of `COc1cc2c(c(OC)c1C)C[C@@H]1OCc3c(cc4c(c3O)OCO4)[C@H]1O2` [Compound 5, Myrtinol E], the results for the half-maximal inhibitory concentration (IC50) in test [1] and in test [2] were 8.51 ± 0.47 µg/mL and 17.2 ± 0.22 µg/mL, respectively. The CC50 in the test with RAW 264.7 macrophages came to 15.5 ± 0.42 µg/mL.
For `COc1cc2c(c(OC)c1C)C[C@@H]1OCc3c(cc(OC)c(OC)c3O)[C@H]1O2` [Compound 6, Myrtinol F], in that order: 12.6 ± 0.26 µg/mL, 30.6 ± 5.01 µg/mL and 19.8 ± 0.86 µg/mL.
